pIC50: −log10 of the molar value.

Assay [1] has as its target T1, CK1α (Homo sapiens, UniProt P48729+Q96SW2).
T1 construct: The supernatant was aspirated as the extracted total cell protein; endogenous in cells; host or cells: human peripheral blood mononuclear cells (hPBMCs)
Description: Western blot degradation of CK1α in hPBMCs (24 h). The format is cell-based. The note with it: compounds at 50 nM and 500 nM. The essentials:
(§1)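 Read-out is Western blot band grayscale, divided by internal control band and normalised to give percent target protein remaining; degradation rate is 1 minus that value. Cells were human PBMCs exposed to compound at 50 nM and 500 nM for 24 hours.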
On the technique in general: A western blot detects proteins with antibodies after separation by electrophoresis.

Assay [2] concerns the target T2, GSPT1 (Homo sapiens, UniProt P15170+Q96SW2).
T2 construct: The supernatant was aspirated as the extracted total cell protein; endogenous in cells; host or cells: human peripheral blood mononuclear cells (hPBMCs)
In words: Western blot degradation of GSPT1 in hPBMCs (24 h). Format: cell-based. To be noted: compounds at 50 nM and 500 nM. The essentials: as §1

In assay [3] the target is T3, IKZF2 (Homo sapiens, UniProt Q96SW2+Q9UKS7).
T3 construct: The supernatant was aspirated as the extracted total cell protein; endogenous in cells; host or cells: human peripheral blood mononuclear cells (hPBMCs)
Description: Western blot degradation of IKZF2 in hPBMCs (24 h). Format: cell-based. To be noted: compounds at 50 nM and 500 nM. The essentials: as §1

Assay [4] deals with T4, IKZF1 (Homo sapiens, UniProt Q13422+Q96SW2).
T4 construct: The supernatant was aspirated as the extracted total cell protein; endogenous in cells; host or cells: human peripheral blood mononuclear cells (hPBMCs)
In words: Western blot degradation of IKZF1 in hPBMCs (24 h). The format is cell-based. The note with it: compounds at 50 nM and 500 nM. The essentials:
as §1

The test system of assay [5] is MM.1S cells. Description: Inhibition of proliferation of multiple myeloma cells MM.1S (cell viability assay, 96 h). Format: cell-based, human. To be noted: read-out: inhibitory activity (IC50) against tumor cells proliferation, MM.1S. As to the method:
The tumor cells used herein were cultured in a cell culture medium listed in table 2 at 37 °C in an incubator with 5% CO2. Prior to experimentation, all cell lines used were correctly identified by STR profiling, and tested negative for Mycoplasma contamination using a Mycoplasma detection kit through routine screenings.
The IC50 values of the compounds of the present disclosure (including the compounds in Table 1, and Examples 1-498) were determined using the CellTiter-Meiluncell Luminescent Cell Viability Assay Kit from Dalian Meilun Biotech Co., Ltd. The detailed procedure is as follows: Tumor cells were seeded in 96-well cell culture plates at the densities specified in Table 3. On the following day, the test compounds of the present disclosure were subjected to serial dilution. […] Subsequently, 0.5 μL of the test compound dilution was transferred into the 96-well plate containing the cells, with each well containing 100 μL of cell culture medium. […] Into the 96-well plate, the diluted test compounds and corresponding detection reagents were added, resulting in final test compound concentrations of 500 nM and 10 nM, respectively. The experimental procedure is described below using the diluted 2 μM test compound as an example.
0.5 μL of the aforementioned diluted compound of the present disclosure (including the compounds in Table 1, and Examples 1-498) was added to the seeded cells in 100 μL of medium, yielding a final test compound concentration of 10 nM. After the cells were treated with the compounds of the present disclosure for a specified period, the cell viability assay reagent was added to the culture medium according to the kit's instructions to determine cell viability. […] All controls were treated using the same procedure as the compounds of the present disclosure. The growth inhibition curves for the compounds of the present disclosure were plotted using Prism GraphPad software, and the IC50 values were calculated therefrom.

For assay [6], the target named is T5, IKZF3 (Homo sapiens, UniProt Q96SW2+Q9UKT9).
T5 construct: The supernatant was aspirated as the extracted total cell protein; endogenous in cells; host or cells: human peripheral blood mononuclear cells (hPBMCs)
In words: Western blot degradation of IKZF3 in hPBMCs (24 h). The format is cell-based. To be noted: compounds at 50 nM and 500 nM. The essentials:
as §1

Assay [7] addresses T6, WEE1 (Homo sapiens, UniProt P30291+Q96SW2).
T6 construct: The supernatant was aspirated as the extracted total cell protein; endogenous in cells; host or cells: human peripheral blood mononuclear cells (hPBMCs)
Description: Western blot degradation of WEE1 in hPBMCs (24 h). The format is cell-based. To be noted: compounds at 50 nM and 500 nM. The essentials:
as §1

T1 sequence (P48729 whole entry): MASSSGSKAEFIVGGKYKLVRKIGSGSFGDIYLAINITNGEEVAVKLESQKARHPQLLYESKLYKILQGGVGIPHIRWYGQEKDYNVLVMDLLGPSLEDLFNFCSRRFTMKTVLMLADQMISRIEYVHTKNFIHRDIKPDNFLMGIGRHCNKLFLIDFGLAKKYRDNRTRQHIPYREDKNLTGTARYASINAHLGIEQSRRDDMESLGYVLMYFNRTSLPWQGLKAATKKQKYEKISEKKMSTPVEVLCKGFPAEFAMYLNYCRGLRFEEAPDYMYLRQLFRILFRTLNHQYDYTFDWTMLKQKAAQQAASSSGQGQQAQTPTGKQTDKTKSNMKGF
T1 sequence (Q96SW2 whole entry): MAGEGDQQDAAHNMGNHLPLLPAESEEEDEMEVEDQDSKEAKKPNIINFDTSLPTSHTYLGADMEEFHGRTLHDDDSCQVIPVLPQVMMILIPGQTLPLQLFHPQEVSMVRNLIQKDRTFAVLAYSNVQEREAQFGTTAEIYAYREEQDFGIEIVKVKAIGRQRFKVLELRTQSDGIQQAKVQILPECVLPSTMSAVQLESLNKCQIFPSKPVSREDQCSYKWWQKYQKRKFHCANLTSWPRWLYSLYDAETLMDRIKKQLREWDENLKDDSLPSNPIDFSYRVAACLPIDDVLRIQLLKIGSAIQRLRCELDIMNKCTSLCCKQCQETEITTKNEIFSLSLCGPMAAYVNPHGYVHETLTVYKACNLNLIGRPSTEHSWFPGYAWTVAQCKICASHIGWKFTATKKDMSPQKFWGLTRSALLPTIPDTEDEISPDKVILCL
T1 sequence (Q16531 whole entry partner): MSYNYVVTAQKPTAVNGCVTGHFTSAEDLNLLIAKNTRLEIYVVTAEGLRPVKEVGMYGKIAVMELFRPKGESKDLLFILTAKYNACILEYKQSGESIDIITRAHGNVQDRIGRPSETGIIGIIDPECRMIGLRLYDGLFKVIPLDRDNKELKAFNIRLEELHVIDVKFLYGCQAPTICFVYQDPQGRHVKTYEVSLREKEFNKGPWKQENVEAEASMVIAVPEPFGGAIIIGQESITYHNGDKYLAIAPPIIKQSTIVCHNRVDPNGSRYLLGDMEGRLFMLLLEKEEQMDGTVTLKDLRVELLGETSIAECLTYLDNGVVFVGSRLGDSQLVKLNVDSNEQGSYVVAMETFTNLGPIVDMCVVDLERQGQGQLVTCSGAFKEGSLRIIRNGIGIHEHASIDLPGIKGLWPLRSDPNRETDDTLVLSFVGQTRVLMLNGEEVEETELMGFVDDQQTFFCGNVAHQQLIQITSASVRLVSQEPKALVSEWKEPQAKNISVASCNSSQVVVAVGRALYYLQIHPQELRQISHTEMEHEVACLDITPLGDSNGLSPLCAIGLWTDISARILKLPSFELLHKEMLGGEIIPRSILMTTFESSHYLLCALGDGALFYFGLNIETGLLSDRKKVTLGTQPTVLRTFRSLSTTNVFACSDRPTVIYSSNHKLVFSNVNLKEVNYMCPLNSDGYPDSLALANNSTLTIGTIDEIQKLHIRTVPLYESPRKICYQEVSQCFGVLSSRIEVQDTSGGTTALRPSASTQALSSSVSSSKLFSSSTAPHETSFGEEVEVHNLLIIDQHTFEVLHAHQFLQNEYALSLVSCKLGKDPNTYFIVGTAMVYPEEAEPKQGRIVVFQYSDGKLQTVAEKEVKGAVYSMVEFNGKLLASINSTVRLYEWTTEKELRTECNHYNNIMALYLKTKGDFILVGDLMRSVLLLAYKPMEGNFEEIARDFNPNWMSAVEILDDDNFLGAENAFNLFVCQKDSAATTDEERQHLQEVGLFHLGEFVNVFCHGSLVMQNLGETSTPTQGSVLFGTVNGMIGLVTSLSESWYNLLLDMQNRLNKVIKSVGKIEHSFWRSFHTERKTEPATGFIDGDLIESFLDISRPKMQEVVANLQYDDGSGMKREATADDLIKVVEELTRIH
T4 sequence (Q13422 whole entry): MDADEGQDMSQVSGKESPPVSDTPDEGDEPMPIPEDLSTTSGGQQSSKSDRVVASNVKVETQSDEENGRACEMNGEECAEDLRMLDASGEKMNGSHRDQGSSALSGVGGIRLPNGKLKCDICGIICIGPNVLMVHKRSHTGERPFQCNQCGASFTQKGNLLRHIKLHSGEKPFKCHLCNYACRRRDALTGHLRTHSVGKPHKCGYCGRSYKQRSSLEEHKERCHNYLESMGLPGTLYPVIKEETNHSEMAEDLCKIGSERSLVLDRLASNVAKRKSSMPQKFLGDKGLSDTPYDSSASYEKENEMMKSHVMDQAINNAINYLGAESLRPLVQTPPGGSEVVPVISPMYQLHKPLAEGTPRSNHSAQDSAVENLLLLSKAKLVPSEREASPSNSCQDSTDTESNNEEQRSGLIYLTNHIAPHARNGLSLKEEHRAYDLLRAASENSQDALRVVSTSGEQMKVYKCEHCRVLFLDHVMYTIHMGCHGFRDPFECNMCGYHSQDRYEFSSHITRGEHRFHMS
T4 sequence (Q96SW2 whole entry): as the sequence (Q96SW2 whole entry) above
T4 sequence (Q16531 whole entry partner): as the sequence (Q16531 whole entry partner) above
T2 sequence (P15170 whole entry): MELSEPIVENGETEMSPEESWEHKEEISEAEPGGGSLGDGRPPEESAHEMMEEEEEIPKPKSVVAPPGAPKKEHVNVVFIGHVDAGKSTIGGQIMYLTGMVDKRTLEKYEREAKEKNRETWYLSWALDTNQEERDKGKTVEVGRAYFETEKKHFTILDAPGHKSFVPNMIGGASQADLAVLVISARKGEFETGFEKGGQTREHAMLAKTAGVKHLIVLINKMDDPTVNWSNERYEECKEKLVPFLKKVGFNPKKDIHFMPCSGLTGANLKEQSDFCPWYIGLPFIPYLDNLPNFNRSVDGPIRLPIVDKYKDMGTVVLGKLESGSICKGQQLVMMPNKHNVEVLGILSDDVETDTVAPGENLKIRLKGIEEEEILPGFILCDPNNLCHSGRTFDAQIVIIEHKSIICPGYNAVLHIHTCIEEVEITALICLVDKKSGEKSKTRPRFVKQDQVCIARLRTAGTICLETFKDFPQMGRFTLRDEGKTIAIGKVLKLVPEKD
T2 sequence (Q96SW2 whole entry): as the sequence (Q96SW2 whole entry) above
T2 sequence (Q16531 whole entry partner): as the sequence (Q16531 whole entry partner) above
T6 sequence (P30291 whole entry): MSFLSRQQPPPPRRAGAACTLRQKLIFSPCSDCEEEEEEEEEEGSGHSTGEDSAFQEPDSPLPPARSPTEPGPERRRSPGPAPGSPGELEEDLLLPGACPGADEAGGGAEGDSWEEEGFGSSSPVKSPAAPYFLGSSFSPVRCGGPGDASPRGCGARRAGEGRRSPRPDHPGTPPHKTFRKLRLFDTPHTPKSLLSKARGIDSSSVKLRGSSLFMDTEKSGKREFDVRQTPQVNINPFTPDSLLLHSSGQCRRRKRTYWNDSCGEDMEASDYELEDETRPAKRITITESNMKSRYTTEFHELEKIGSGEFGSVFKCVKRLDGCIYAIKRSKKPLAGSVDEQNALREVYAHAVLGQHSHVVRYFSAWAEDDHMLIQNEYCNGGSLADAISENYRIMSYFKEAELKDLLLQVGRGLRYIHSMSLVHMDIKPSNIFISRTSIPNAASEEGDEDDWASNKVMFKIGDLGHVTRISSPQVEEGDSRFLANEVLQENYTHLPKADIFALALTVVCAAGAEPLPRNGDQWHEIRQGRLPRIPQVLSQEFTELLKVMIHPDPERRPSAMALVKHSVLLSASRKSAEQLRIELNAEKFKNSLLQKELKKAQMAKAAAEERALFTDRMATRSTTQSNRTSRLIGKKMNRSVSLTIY
T6 sequence (Q96SW2 whole entry): as the sequence (Q96SW2 whole entry) above
T6 sequence (Q16531 whole entry partner): as the sequence (Q16531 whole entry partner) above
T5 sequence (Q9UKT9 whole entry): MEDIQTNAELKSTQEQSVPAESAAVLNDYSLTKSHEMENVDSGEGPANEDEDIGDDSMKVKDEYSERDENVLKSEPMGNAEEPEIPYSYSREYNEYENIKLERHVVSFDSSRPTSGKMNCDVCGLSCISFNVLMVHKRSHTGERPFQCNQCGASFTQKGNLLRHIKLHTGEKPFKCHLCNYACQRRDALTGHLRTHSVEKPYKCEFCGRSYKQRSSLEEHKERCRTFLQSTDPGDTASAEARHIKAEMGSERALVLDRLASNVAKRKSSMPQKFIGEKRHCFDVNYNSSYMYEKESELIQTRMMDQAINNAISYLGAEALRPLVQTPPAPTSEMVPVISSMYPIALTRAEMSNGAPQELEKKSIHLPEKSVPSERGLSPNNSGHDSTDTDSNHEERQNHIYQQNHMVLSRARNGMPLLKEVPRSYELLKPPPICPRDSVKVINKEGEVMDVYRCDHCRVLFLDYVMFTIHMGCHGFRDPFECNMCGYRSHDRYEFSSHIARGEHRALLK
T5 sequence (Q96SW2 whole entry): as the sequence (Q96SW2 whole entry) above
T5 sequence (Q16531 whole entry partner): as the sequence (Q16531 whole entry partner) above

As for `O=C1CCN(N2Cc3cc(CN4CCN(c5ccc(Cl)cn5)CC4)ccc3C2=O)C(=O)N1` [GT-05127, 1-(5-((4-(5-chloropyridin-2-yl)piperazin-1-yl)methyl)-1-oxoisoindolin-2-yl)dihydropyrimidine-2,4(1H,3H)-dione], the “CK1α substrate protein remaining %” value in assay [1] is “A (0% ≤ substrate protein remaining % ≤80%)”. Moreover, the “GSPT1 substrate protein remaining %” value in assay [2] was “A (0% ≤ substrate protein remaining % ≤80%)”. Also, in assay [3], the “IKZF2 substrate protein remaining %” value is reported as “B (80%< substrate protein remaining % ≤100%)”. In addition, the “IKZF1 substrate protein remaining %” value in assay [4] is listed as “A (0% ≤ substrate protein remaining % ≤80%)”. Further, the pIC50 in assay [5] was 6.00 to 6.30. The “IKZF3 substrate protein remaining %” value in assay [6] is listed as “A (0% ≤ substrate protein remaining % ≤80%)”. Besides, the “WEE1 substrate protein remaining %” value in assay [7] was “A (0% ≤ substrate protein remaining % ≤80%)”.
With `O=C1CCN(N2Cc3cc(CN4C[C@@H]5C[C@H]4CN5c4cccc(Cl)c4Cl)ccc3C2=O)C(=O)N1` [GT-05163, 1-(5-(((1S,4S)-5-(2,3-dichlorophenyl)-2,5-diazabicyclo[2.2.1]heptan-2-yl)methyl)-1-oxoisoindolin-2-yl)dihydropyrimidine-2,4(1H,3H)-dione], in assay [1], the “CK1α substrate protein remaining %” value is recorded as “B (80%< substrate protein remaining % ≤100%)”. Further, the “GSPT1 substrate protein remaining %” value in assay [2] is listed as “A (0% ≤ substrate protein remaining % ≤80%)”. In addition, the “IKZF2 substrate protein remaining %” value in assay [3] is on record as “A (0% ≤ substrate protein remaining % ≤80%)”. The “IKZF1 substrate protein remaining %” value in assay [4] is given as “A (0% ≤ substrate protein remaining % ≤80%)”. Besides, the pIC50 in assay [5] was 6.00 to 6.30. Further, the “IKZF3 substrate protein remaining %” value in assay [6] is recorded as “A (0% ≤ substrate protein remaining % ≤80%)”. The “WEE1 substrate protein remaining %” value in assay [7] is recorded as “B (80%< substrate protein remaining % ≤100%)”.
In the case of `O=C1CCN(N2Cc3cc(CN4CCC(c5c[nH]c6cc(F)ccc56)CC4)ccc3C2=O)C(=O)N1` [GT-05164, 1-(5-((4-(6-fluoro-1H-indol-3-yl)piperidin-1-yl)methyl)-1-oxoisoindolin-2-yl)dihydropyrimidine-2,4(1H,3H)-dione], in assay [1], the “CK1α substrate protein remaining %” value is reported as “B (80%< substrate protein remaining % ≤100%)”. The “GSPT1 substrate protein remaining %” value in assay [2] is “A (0% ≤ substrate protein remaining % ≤80%)”. The “IKZF2 substrate protein remaining %” value in assay [3] was “A (0% ≤ substrate protein remaining % ≤80%)”. Also, in assay [4], the “IKZF1 substrate protein remaining %” value was “A (0% ≤ substrate protein remaining % ≤80%)”. Further, the pIC50 in assay [5] was 6.52 to 7.00. In addition, the “IKZF3 substrate protein remaining %” value in assay [6] is given as “B (80%< substrate protein remaining % ≤100%)”. The “WEE1 substrate protein remaining %” value in assay [7] was “B (80%< substrate protein remaining % ≤100%)”.
With `O=C1CCN(N2Cc3cc(CN4CCC(N5CCc6cc(F)ccc65)CC4)ccc3C2=O)C(=O)N1` [GT-05165, 1-(5-((4-(5-fluoroindolin-1-yl)piperidin-1-yl)methyl)-1-oxoisoindolin-2-yl)dihydropyrimidine-2,4(1H,3H)-dione], the “CK1α substrate protein remaining %” value in assay [1] is listed as “B (80%< substrate protein remaining % ≤100%)”. For the same compound, in assay [2], the “GSPT1 substrate protein remaining %” value is “A (0% ≤ substrate protein remaining % ≤80%)”. In assay [3], the “IKZF2 substrate protein remaining %” value was “A (0% ≤ substrate protein remaining % ≤80%)”. Further, the “IKZF1 substrate protein remaining %” value in assay [4] is listed as “B (80%< substrate protein remaining % ≤100%)”. Further, the pIC50 in assay [5] was 6.00 to 6.30. Moreover, the “IKZF3 substrate protein remaining %” value in assay [6] is reported as “B (80%< substrate protein remaining % ≤100%)”. Further, the “WEE1 substrate protein remaining %” value in assay [7] is given as “B (80%< substrate protein remaining % ≤100%)”.
As to `O=C1CCN(N2Cc3cc(CN4CC=C(c5ccnc6cc(F)ccc56)CC4)ccc3C2=O)C(=O)N1` [GT-05166, 1-(5-((4-(7-fluoroquinolin-4-yl)-3,6-dihydropyridin-1(2H)-yl)methyl)-1-oxoisoindolin-2-yl)dihydropyrimidine-2,4(1H,3H)-dione], in assay [1], the “CK1α substrate protein remaining %” value was “B (80%< substrate protein remaining % ≤100%)”. Besides, the “GSPT1 substrate protein remaining %” value in assay [2] is reported as “A (0% ≤ substrate protein remaining % ≤80%)”. In addition, the “IKZF2 substrate protein remaining %” value in assay [3] is listed as “A (0% ≤ substrate protein remaining % ≤80%)”. The “IKZF1 substrate protein remaining %” value in assay [4] was “A (0% ≤ substrate protein remaining % ≤80%)”. Moreover, in assay [5], the pIC50 is 6.52 to 7.00. Moreover, the “IKZF3 substrate protein remaining %” value in assay [6] is “A (0% ≤ substrate protein remaining % ≤80%)”. Besides, the “WEE1 substrate protein remaining %” value in assay [7] is “A (0% ≤ substrate protein remaining % ≤80%)”.
Take `Cn1cc(C2=CCN(Cc3ccc4c(c3)CN(N3CCC(=O)NC3=O)C4=O)CC2)c2ccc(F)cc21` [GT-05167, 1-(5-((4-(6-fluoro-1-methyl-1H-indol-3-yl)-3,6-dihydropyridin-1 (2H)-yl)methyl)-1-oxoisoindolin-2-yl)dihydropyrimidine-2,4(1H,3H)-dione]: the “CK1α substrate protein remaining %” value in assay [1] is listed as “B (80%< substrate protein remaining % ≤100%)”. In addition, in assay [2], the “GSPT1 substrate protein remaining %” value is “A (0% ≤ substrate protein remaining % ≤80%)”. Further, the “IKZF2 substrate protein remaining %” value in assay [3] is on record as “A (0% ≤ substrate protein remaining % ≤80%)”. For the same compound, the “IKZF1 substrate protein remaining %” value in assay [4] is given as “A (0% ≤ substrate protein remaining % ≤80%)”. For the same compound, in assay [5], the pIC50 was 7.30 to 8.00. Moreover, in assay [6], the “IKZF3 substrate protein remaining %” value is “A (0% ≤ substrate protein remaining % ≤80%)”. The “WEE1 substrate protein remaining %” value in assay [7] was “A (0% ≤ substrate protein remaining % ≤80%)”.
With `O=C1CCN(N2Cc3cc(CN4CC(=C5CCOc6cc(F)ccc65)C4)ccc3C2=O)C(=O)N1` [GT-05168, 1-(5-((3-(7-fluorochroman-4-ylidene)azetidin-1-yl)methyl)-1-oxoisoindolin-2-yl)dihydropyrimidine-2,4(1H,3H)-dione], the “CK1α substrate protein remaining %” value in assay [1] is reported as “B (80%< substrate protein remaining % ≤100%)”. In addition, the “GSPT1 substrate protein remaining %” value in assay [2] was “A (0% ≤ substrate protein remaining % ≤80%)”. Also, the “IKZF2 substrate protein remaining %” value in assay [3] is on record as “B (80%< substrate protein remaining % ≤100%)”. Besides, the “IKZF1 substrate protein remaining %” value in assay [4] was “B (80%< substrate protein remaining % ≤100%)”. Further, the pIC50 in assay [5] was 6.52 to 7.00. In addition, the “IKZF3 substrate protein remaining %” value in assay [6] was “A (0% ≤ substrate protein remaining % ≤80%)”. In addition, in assay [7], the “WEE1 substrate protein remaining %” value is “B (80%< substrate protein remaining % ≤100%)”.
Take `O=C1CCN(N2Cc3cc(CN4CC(N5CCc6cc(F)ccc65)C4)ccc3C2=O)C(=O)N1` [GT-05169, 1-(5-((3-(5-fluoroindolin-1-yl)azetidin-1-yl)methyl)-1-oxoisoindolin-2-yl)dihydropyrimidine-2,4(1H,3H)-dione]: the “CK1α substrate protein remaining %” value in assay [1] was “B (80%< substrate protein remaining % ≤100%)”. The “GSPT1 substrate protein remaining %” value in assay [2] is “A (0% ≤ substrate protein remaining % ≤80%)”. Further, the “IKZF2 substrate protein remaining %” value in assay [3] is reported as “A (0% ≤ substrate protein remaining % ≤80%)”. In assay [4], the “IKZF1 substrate protein remaining %” value is recorded as “B (80%< substrate protein remaining % ≤100%)”. Moreover, the pIC50 in assay [5] was 6.52 to 7.00. Besides, in assay [6], the “IKZF3 substrate protein remaining %” value is “A (0% ≤ substrate protein remaining % ≤80%)”. In addition, the “WEE1 substrate protein remaining %” value in assay [7] is on record as “B (80%< substrate protein remaining % ≤100%)”.
Take `O=C1CCN(N2Cc3cc(CN4CC=C(c5nccc(Cl)c5Cl)CC4)ccc3C2=O)C(=O)N1` [GT-06392, 1-(5-((3,4-dichloro-3′,6′-dihydro-[2,4′-bipyridin]-1′ (2′H)-yl)methyl)-1-oxoisoindolin-2-yl)dihydropyrimidine-2,4(1H,3H)-dione]: the “CK1α substrate protein remaining %” value in assay [1] was “A (0% ≤ substrate protein remaining % ≤80%)”. For the same compound, in assay [2], the “GSPT1 substrate protein remaining %” value was “A (0% ≤ substrate protein remaining % ≤80%)”. In assay [3], the “IKZF2 substrate protein remaining %” value is listed as “A (0% ≤ substrate protein remaining % ≤80%)”. The “IKZF1 substrate protein remaining %” value in assay [4] is reported as “B (80%< substrate protein remaining % ≤100%)”. In addition, the pIC50 in assay [5] was 6.30 to 6.52. In addition, in assay [6], the “IKZF3 substrate protein remaining %” value was “A (0% ≤ substrate protein remaining % ≤80%)”. Besides, the “WEE1 substrate protein remaining %” value in assay [7] was “A (0% ≤ substrate protein remaining % ≤80%)”.

The values are drawn from patent publication US20260356819A1, “OXOISOINDOLINYL-SUBSTITUTED […] DERIVATIVE AND USE THEREOF” (GLUETACS THERAPEUTICS (SHANGHAI) CO., LTD., priority 2023, published 2026).
